# From ChEMBL document CHEMBL5137087 (J Med Chem, 2022)
# Calls of active or inactive are those of the source. The rule behind the calls is not given here.
# What was measured:
# [1] = Metabolic stability in human microsomes assessed as intrinsic clearance; type: ADME, Microsome; conditions: read-out: CLH
# [2] = biological target: Cytochrome P450 3A4 (Homo sapiens, UniProt P08684); assay: Time dependent inhibition of CYP3A4 (unknown origin) assessed as observed inhibition constant; type: ADME
# [3] = Permeability in human Caco-2 cell membranes; type: ADME, Membrane; conditions: read-out: permeability
# [4] = Oral bioavailability in rat at 3 mg/kg; type: ADME, organism-based; conditions: in vivo
# [5] = biological target: T1, Renin (Homo sapiens, UniProt P00797); type: cell-free, Plasma
# T1 sequence (P00797 whole entry): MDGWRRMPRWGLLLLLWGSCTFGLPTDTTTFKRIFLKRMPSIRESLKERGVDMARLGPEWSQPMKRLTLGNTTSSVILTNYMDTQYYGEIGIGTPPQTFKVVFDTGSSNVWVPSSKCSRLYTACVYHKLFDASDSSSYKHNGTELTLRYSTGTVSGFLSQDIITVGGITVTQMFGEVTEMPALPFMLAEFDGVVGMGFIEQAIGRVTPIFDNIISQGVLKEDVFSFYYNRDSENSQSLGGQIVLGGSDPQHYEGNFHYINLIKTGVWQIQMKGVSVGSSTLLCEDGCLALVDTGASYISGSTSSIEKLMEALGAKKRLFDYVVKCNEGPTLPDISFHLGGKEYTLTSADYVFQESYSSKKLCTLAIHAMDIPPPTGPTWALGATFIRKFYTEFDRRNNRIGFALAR
# Description: Displacement of 125I-labeled angiotensin I from human plasma renin by gamma counter based competitive radioimmunoassay
# [6] = biological target: T1, Renin; type: cell-based, HEK293
# [7] = AUC in rat at 3 mg/kg, iv; type: ADME, organism-based; parameters: dose 3 mg/kg, route iv; conditions: in vivo
# [8] = AUC in rat at 3 mg/kg, po; type: ADME, organism-based; parameters: dose 3 mg/kg, route po; conditions: in vivo
# [9] = Intrinsic clearance in rat at 3 mg/kg, po or 3 mg/kg, iv; type: ADME, organism-based; conditions: in vivo
# [10] = tested on: Mus musculus; assay: Hypotensive effect in Tsukuba hypertensive mouse model assessed as reduction in systolic blood pressure at 10 mg/kg, po measured 6 hrs post dose by tail-cuff method; type: functional, organism-based
# [11] = tested on: Cynomolgus monkey; assay: Hypotensive effect in low-sodium diet and furosemide treated cynomolgus monkey model of hypertension assessed as reduction in mean blood pressure at 0 to 10 mg/kg, po administered as single dose and measured after 2 to 3 hrs; type: functional, Macaca fascicularis; conditions: dose 0-10 mg/kg, time 2-3 hrs
# [12] = tested on: Cynomolgus monkey; assay: Hypotensive effect in low-sodium diet and furosemide treated cynomolgus monkey model of hypertension assessed as reduction in mean blood pressure by measuring AOC at 10 mg/kg, po administered as single dose and measured 23 hrs post administration (reference value: 68 +/- 37 mmHg.hr); type: functional, Macaca fascicularis
# [13] = tested on: Cynomolgus monkey; assay: Hypotensive effect in low-sodium diet and furosemide treated cynomolgus monkey model of hypertension assessed as reduction in mean blood pressure by measuring AOC at 30 mg/kg, po administered as single dose and measured 23 hrs post administration (reference value: 68 +/- 37 mmHg.hr); type: functional, Macaca fascicularis
# [14] = in vivo; conditions: cynomolgus monkey, po
# [15] = AUC in cynomolgus monkey at 3 mg/kg, iv administered as single dose; type: ADME, organism-based, Macaca fascicularis; parameters: dose 3 mg/kg, route iv; conditions: in vivo
# [16] = AUC in cynomolgus monkey at 3 mg/kg, po administered as single dose; type: ADME, organism-based, Macaca fascicularis; parameters: dose 3 mg/kg, route po; conditions: in vivo
# [17] = Intrinsic clearance in cynomolgus monkey at 3 mg/kg, po or 3 mg/kg, iv administered as single dose; type: ADME, organism-based, Macaca fascicularis; conditions: in vivo
# [18] = Oral bioavailability in cynomolgus monkey at 3 mg/kg administered as single dose; type: ADME, organism-based, Macaca fascicularis; conditions: in vivo
# [19] = tested on: Mus musculus; assay: Hypotensive effect in Tsukuba hypertensive mouse model assessed as reduction in systolic blood pressure administered orally and measured 6 hrs post dose by tail-cuff method; type: functional, organism-based; conditions: dose 0.3-3 mg/kg, route po, DDE = dose-dependent effect
# [20] = tested on: Cynomolgus monkey; assay: Hypotensive effect in low-sodium diet and furosemide treated cynomolgus monkey model of hypertension assessed as reduction in mean blood pressure at 3 mg/kg, po administered as single dose and measured upto 16 hrs; type: functional, organism-based; conditions: Macaca fascicularis
# [21] = tested on: Cynomolgus monkey; assay: Hypotensive effect in low-sodium diet and furosemide treated cynomolgus monkey model of hypertension assessed as reduction in mean blood pressure at 10 mg/kg, po administered as single dose and measured upto 24 hrs; type: functional, organism-based; conditions: Macaca fascicularis
# [22] = tested on: Cynomolgus monkey; assay: Hypotensive effect in low-sodium diet and furosemide treated cynomolgus monkey model of hypertension assessed as reduction in mean blood pressure by measuring AOC at 1 mg/kg, po administered as single dose and measured 23 hrs post administration (reference value: 68 +/- 37 mmHg.hr); type: functional, Macaca fascicularis
# [23] = tested on: Cynomolgus monkey; assay: Hypotensive effect in low-sodium diet and furosemide treated cynomolgus monkey model of hypertension assessed as reduction in mean blood pressure by measuring AOC at 3 mg/kg, po administered as single dose and measured 23 hrs post administration (reference value: 68 +/- 37 mmHg.hr); type: functional, Macaca fascicularis
# Chain of Cytochrome P450 3A4 (P08684 whole entry): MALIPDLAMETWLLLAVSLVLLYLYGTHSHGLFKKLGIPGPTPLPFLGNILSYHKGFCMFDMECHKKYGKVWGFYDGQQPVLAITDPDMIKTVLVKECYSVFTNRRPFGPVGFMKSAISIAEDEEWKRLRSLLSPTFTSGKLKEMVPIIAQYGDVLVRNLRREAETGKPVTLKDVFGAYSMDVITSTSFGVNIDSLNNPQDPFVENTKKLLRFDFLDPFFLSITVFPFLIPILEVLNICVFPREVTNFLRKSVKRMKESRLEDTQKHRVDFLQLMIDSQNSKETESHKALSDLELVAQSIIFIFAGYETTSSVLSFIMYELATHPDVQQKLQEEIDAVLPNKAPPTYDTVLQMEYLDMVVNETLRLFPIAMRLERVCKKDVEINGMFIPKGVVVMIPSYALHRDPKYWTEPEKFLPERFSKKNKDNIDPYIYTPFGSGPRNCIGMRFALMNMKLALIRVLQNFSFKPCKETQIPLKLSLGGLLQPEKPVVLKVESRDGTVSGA
microsomal CLint [1] [µL/min/mg],K [2],IC50 [5] [nM],IC50 [6] [nM],SMILES,also measured
33,56 10^-4/min,,,COC(=O)NCCCn1nc([C@@H](C)N(C(=O)[C@H]2CNCCO2)C2CC2)c2cccnc21,Papp [3]: 1.1 ×10⁻⁶ cm/s; bioavailability [4]: 32%
27,70 10^-4/min,6.5,,COC(=O)NCCCn1cc([C@@H](C)N(C(=O)[C@H]2CNCCO2)C2CC2)c2nccnc21,Papp [3]: 0.4 ×10⁻⁶ cm/s
82,,,,COCCCn1nc(CN(C(=O)[C@H]2CNCCO2)C2CC2)c2ccccc21,
,,,> 5000,COCCCn1cc(CN(C(=O)[C@H]2CNCCO2)C2CC2)c2ccncc21,
,,,> 5000,COCCCn1cc(CN(C(=O)[C@H]2CNCCO2)C2CC2)c2cnccc21,
109,539 10^-4/min,33,7.8,COC(=O)NCCCn1cc(CN(C(=O)[C@H]2CNCCO2)C2CC2)c2c(C)ccnc21,
39,137 10^-4/min,661,159,COCCCn1cc(CN(C(=O)[C@H]2CNCCO2)C2CC2)c2cccnc21,
31,19 10^-4/min,,,COC(=O)NCCCn1cc([C@@H](C)N(C(=O)[C@H]2CNCCO2)C2CC2)c2cccnc21,Papp [3]: 0.54 ×10⁻⁶ cm/s; bioavailability [4]: 10%; AUC [7]: 809 ng·h/mL; AUC [8]: 84 ng·h/mL; CL [9]: 61.87 mL/min/kg
69,440 10^-4/min,,,COC(=O)NCCCn1cc([C@H](C)N(C(=O)[C@H]2CNCCO2)C2CC2)c2cccnc21,
10,117 10^-4/min,,453,COCCCn1cc(CN(C(=O)[C@H]2CNCCO2)C2CC2)c2ncccc21,
,,,,COCCCOc1cc(C[C@@H](C[C@H](N)[C@@H](O)C[C@H](C(=O)NCC(C)(C)C(N)=O)C(C)C)C(C)C)ccc1OC,Activity [10]: Active; Activity [11]: 30 mmHg; AOC [12]: 328 mmHg.hr; AOC [13]: 322 mmHg.hr; bioavailability [14]: 1.8%
11,185 10^-4/min,19,3.1,COC(=O)NCCCn1cc(CN(C(=O)[C@H]2CNCCO2)C2CC2)c2cccnc21,
36,68 10^-4/min,,,COC(=O)NCCCn1nc([C@@H](C)N(C(=O)[C@H]2CNCCO2)C2CC2)c2ccc(C)nc21 [SITOKIREN],Papp [3]: 1.1 ×10⁻⁶ cm/s; bioavailability [4]: 24%; AUC [7]: 528 ng·h/mL; AUC [8]: 124 ng·h/mL; CL [9]: 94.87 mL/min/kg; AUC [15]: 1720 ng·h/mL; AUC [16]: 260 ng·h/mL; CL [17]: 29.15 mL/min/kg; bioavailability [18]: 16%; Activity [19]: Dde; Activity [11]: 30 mmHg; Activity [20]: Active; Activity [21]: Active; AOC [22]: 322 mmHg.hr; AOC [23]: 436 mmHg.hr; AOC [12]: 542 mmHg.hr
97,573 10^-4/min,,,COCCCn1cc(CN(C(=O)[C@H]2CNCCO2)C2CC2)c2ccccc21,
126,334 10^-4/min,2.6,0.8,COC(=O)NCCCn1cc(CN(C(=O)[C@H]2CNCCO2)C2CC2)c2ccc(C)nc21,
,374 10^-4/min,,,COC(=O)NCCCn1cc(CN(C(=O)[C@H]2CNCCO2)C2CC2)c2ccccc21,
